Data: patent US6034215A, “3-amino-2-oxo-1-piperidnercetic derivatives as enzyme inhibitors” (Corvas International, Inc., priority 1997, dated 2000)
Where two headings read alike, the source gives them in different places.

What was measured:
[1] = target: human α-thrombin (Homo sapiens, UniProt P00734); assay: In vitro enzyme assay for specificity: Thrombin (fIIa) assay, IC50; format: biochemical
Description: IC50 determinations were conducted where HBSA (50 μL), α-thrombin (50 μl) and inhibitor (50 μl) (covering a broad concentration range), were combined in appropriate wells and incubated for 30 minutes at room temperature prior to the addition of substrate Pefachrome-t-PA (50 μl).

[2] = system: citrated rat plasma; assay: Anticoagulant effect in rat plasma, activated partial thromboplastin time (APTT) assay; format: biochemical; details: rat plasma, broad concentration range of added inhibitor
Description: (§1) The ex vivo anticoagulant effects of BzlSO2 -norVal (cyclo)-Gly-Arg-al(Example 8) and N-(BnSO2 -norLeu (cyclo)-Gly)-L-argininal (Example 34) were determined by measuring the prolongation of the activated partial thromboplastin time (APTT) over a broad concentration range of the added inhibitor, using pooled normal human and rat plasma.
(§2) Fresh frozen citrated pooled normal human plasma was obtained from George King Biomedical, Overland Park, Kans. Pooled normal rat plasma was prepared from citrated whole blood collected from anesthetized rats using standard procedures. The plasma was flash frozen and stored at -80° C. until use.
(§3) Measurements APTT was made using the Coag-A-Mate RA4 automated coagulometer (General Diagnostics, Organon Technica, Oklahoma City, Okla.) using the Automated APTT reagent (Organon Technica, Durham, N.C.) as the initiator of clotting according to the manufacturers instructions. The assay was conducted by making a series of dilutions of the test compounds in rapidly thawed plasma followed by adding 200 microliters to the wells of the assay carousel.

[3] = target: T1, bovine pancreatic trypsin (Bos taurus, UniProt P00760); assay: In vitro enzyme assay for specificity: trypsin, IC50; format: biochemical; details: Table 2
T1 sequence (P00760 24-246): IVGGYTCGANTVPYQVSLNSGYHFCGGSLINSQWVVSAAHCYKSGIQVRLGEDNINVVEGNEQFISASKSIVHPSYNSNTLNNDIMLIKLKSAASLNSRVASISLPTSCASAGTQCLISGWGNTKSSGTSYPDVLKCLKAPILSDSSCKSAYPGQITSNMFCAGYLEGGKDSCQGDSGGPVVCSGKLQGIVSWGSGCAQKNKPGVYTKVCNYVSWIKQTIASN
Description: Trypsin catalytic activity was determined using the chromogenic substrate, S-2222 (benzoyl-L-isoleucine-L-glutamic acid-(gamma-methyl ester)-L-arginine-p-nitroanilide), which was obtained from Kabi Diagnostica. […] Purified (3×-crystallized; TRL3) bovine pancreatic trypsin was obtained from Worthington Biochemical Corp. The enzyme was reconstituted in deionized water and diluted into HBSA prior to assay in which the final concentration was 0.5 nM.

[4] = system: activated partial thromboplastin time (APTT); assay: Oral activity in dogs: clotting time of blood samples by APTT assay; format: in vivo, beagle dogs; details: after oral dosing
Description: (§4) The pharmacodynamic and pharmacokinetic parameters of the compound of Example 34 were evaluated after oral administration in dogs. Adult beagle dogs (9-12 kg) were housed individually in standard cages, and were fed a standard certified commercial diet and tap water ad libitum. Dogs were given an oral dose of 20 mg/kg test compound, in 55 ml deionized water, via a gastric tube, followed by a water rinse. In a separate protocol, 5 mg/kg of test compound, in 5 ml 0.9% sodium chloride, were administered by fast bolus i.v. injection through an indwelling saphenous vein catheter. The same dogs were used for both routes of administration, with a one week wash out period between use of the dogs for the different protocols.
After mixing with the anticoagulant, each blood sample was immediately chilled by immersion in a slurry of ice and water. The plasma was separated by centrifugation (4° C., 2400 rpm, 10 min) within 10 min of collection, and then transferred to a cryotube and stored at […] until analysis.
(§5) The blood levels of test compound were measured by extracting the compound from plasma, separation by HPLC, and post-column derivatization with a fluorogenic functional group. The clotting time of blood was measured using an APTT assay, which measures the prolongation of the activated partial thromboplastin time (APTT) by the test compound. […]

[5] = target: human alpha-thrombin (Homo sapiens, UniProt P00734); assay: Kinetic analysis in an in vitro thrombin inhibition assay (Ki); format: biochemical; details: Table 1; Mean ± SD, n = 3; steady state velocities over 40 minutes
Description: Enzyme activity was determined using the chromogenic substrate Pefachrome t-PA (CH3SO2-D-hexahydrotyrosine-glycyl -L-arginine-p-Nitroanilide), obtained from Pentapharm Ltd. The substrate was reconstituted in deionized water prior to use. Purified human alpha-thrombin (3000U/mg specific activity) was obtained from Enzyme Research Laboratories, Inc. The buffer used for all assays was HBSA (10 mM HEPES, pH 7.5, 150 mM sodium chloride, 0.1% bovine serum albumin).
Velocities of chromogenic substrate hydrolysis which occurred over 40 minutes was measured by the change in absorbance at 405 nm using a Thermo Max® Kinetic Microplate Reader. […] The extent of substrate hydrolysis was less than 5% over the course of this assay.

[6] = Oral activity in dogs: blood levels and bioavailability; format: in vivo, beagle dogs
Description: as §4, with “protocols. […]” for “protocols.”
as §5
The systemic bioavailability of the test compound administered by the oral route was calculated by comparing the AUC values (area under curve describing level of compound in blood over time) after i.v. and oral administration. […]

[7] = system: FeCl3 -induced Platelet-dependent Arterial Thrombosis; assay: Rat model of FeCl3 -induced platelet-dependent arterial thrombosis; format: in vivo; details: for Incidence of Occlusion: rat
Text: This is a well characterized model of platelet dependent, arterial thrombosis which has been used in the evaluation potential antithrombotic compounds such as direct thrombin inhibitors. Kurz, K. D., Main, B. W., and Sandusky, G. E., Thromb. Res., 60: 269-280 (1990). In this model a platelet-rich, occlusive thrombus is formed in a segment of the rat carotid artery treated locally with a fresh solution of FeCl3 absorbed to a piece of filter paper. The FeCl3 is thought to diffuse into the treated segment of artery and causes de-endothelialization of the affected vessel surface. […] The effect of a test compound on the incidence of occlusive thrombus formation following the application of the FeCl3 is monitored by ultrasonic flowtometry and is used as the primary end point. The use of flowtometry to measure carotid artery blood flow, is a modification of the original procedure in which thermal detection of clot formation was employed. Kurz, K. D., Main, B. W., and Sandusky, G. E., Thromb. Res., 60: 269-280 (1990).
Male Harlan Sprague Dawley rats (420-450 g) were acclimated at least 72 hours prior to use and fasted for 12 hours prior to surgery with free access to water. The animals were prepared, anesthetized with Nembutal followed by the insertion of catheters for blood pressure monitoring, drug and anesthesia delivery. The left carotid artery was isolated by making a midline cervical incision followed by blunt dissection and spreading techniques to separate a 2 cm segment of the vessel from the carotid sheath. A silk suture is inserted under the proximal and distal ends of the isolated vessel to provide clearance for the placement of a ultrasonic flow probe (Transonic) around the proximal end of the vessel. The probe is then secured with a stationary arm.
Following surgery the animals were randomized in either a control (saline) or treatment group with test compound (BzlSO2 -norVal(cyclo)-Gly-Arg-al or N-(BnSO2 -norLeu(cyclo)Gly)-L-argininal)with at least 6 animals per group per dose. The test compound was administered as a single intravenous bolus at the doses outlined in Table 3 after placement of the flow probe and 5 minutes prior to the thrombogenic stimulus. At t=0, a 3 mm diameter piece of filter paper (Whatman #3) soaked with 10 microliters of a 35% solution of fresh FeCl3 (made up in water) was applied the segment of isolated carotid artery distal to the flow probe. Blood pressure, blood flow, heart rate, and respiration were monitored for 60 minutes.
The incidence of occlusion (defined as the attainment of zero blood flow) was recorded as the primary end point.
This allows a direct comparison of the antithrombotic efficacy of BzlSO2 -norVal(cyclo)-Gly-Arg-al and N-(BnSO2 -norLeu(cyclo)-Gly)-L-argininal with other antithrombotic agents which have also been evaluated in this model as described above. Table 6 lists the ED50 values for several well known anticoagulant agents in this model compared to the present compounds.

[8] = system: citrated human plasma; assay: Anticoagulant effect in human plasma, activated partial thromboplastin time (APTT) assay; format: biochemical
Description: as §1, §2, §3

NC(N)=NCCC[C@@H](C=O)NC(=O)CN1CCCCC(NS(=O)(=O)Cc2ccccc2)C1=O (stereo partly drawn) [Example 34, N-(BnSO2 -norLeu(cyclo)-Gly)-L-argininal]
IC50 ([1]; Table 2, 30-minute incubation with enzyme before substrate, read-out: IC50 alpha-thrombin): 0.93 nM
IC50 ([1]; Table 3, read-out: IC50 (nM) thrombin): 0.71 nM
prolongation of the APTT [2]: prolonged the APTT in a dose-dependent manner
IC50 [3]: 72 nM
time to significant elevation of APTT [4]: 20 to 30 min
Ki [5]: 0.538 ± 0.08 nM
time at which blood level of compound reached maximum levels ([6]; after administration): 30 to 40 min
systemic bioavailability (ratio of AUC oral to AUC i.v.) ([6]; oral 20 mg/kg vs i.v. 5 mg/kg, corrected for difference in dose): approximately 66%
ED50 for thrombus prevention (dose that prevents complete thrombotic occlusion in 50% of animals tested) ([7]; rat FeCl3 model of arterial thrombosis): 2.1 mg/kg
Incidence of Occlusion ([7]; 0.3 mg/kg single intravenous bolus 5 minutes prior to FeCl3, n 6, monitored 60 minutes): 6/6
Incidence of Occlusion ([7]; 1.0 mg/kg single intravenous bolus 5 minutes prior to FeCl3, n 6, monitored 60 minutes): 6/6
Incidence of Occlusion ([7]; 3.0 mg/kg single intravenous bolus 5 minutes prior to FeCl3, n 6, monitored 60 minutes): 2/6
Incidence of Occlusion ([7]; 5.0 mg/kg single intravenous bolus 5 minutes prior to FeCl3, n 6, monitored 60 minutes): 2/6
concentration which caused a doubling of the control clotting time (APTT) ([8]; citrated human plasma, mean of two independent determinations): 4.5 µM
prolongation of the APTT ([8]; human plasma, broad concentration range of added inhibitor): prolonged the APTT in a dose-dependent manner
